Experimental data: patent US6703349B2, “Enhanced herbicide composition” (Valent BioSciences Corporation, priority 2001, dated 2004)

Assays:
Tobacco = experiment: Greenhouse spray test, phytotoxicity/herbicidal effect and re-growth rating on tobacco; assay type: in vivo, Nicotiana tabacum (tobacco); on 8 day phytotoxicity Rating (1 = least damage, 5 = most): COC 0.25% (v/v); on 9 day phytotoxicity Rating (1 = least damage, 5 = most): COC 0.25% (v/v)
Experimental: (§1) Ultra pure water was used in preparing solutions. For active ingredients (e.g. lactofen or flumioxazin), the active ingredient was dissolved in a small amount of solvent (dimethyl sulfoxide (DMSO) or 1-methyl-2-pyrrolidone), and then water was added. Spray solutions were used as soon as possible after mixing.
(§2) COC in water was used as the control.
(§3) After spraying, plants were allowed to dry at room temperature (about 25° C.). They were then moved to the greenhouse, and plants were arranged in a randomized complete block experimental design. Plants were evaluated for phytotoxicity/herbicidal effects at 24 hours and 7 to 9 days after spraying, assessing damage according to the following scale:
(§4) 5=100% leaf area affected
(§5) Plants were rated for re-growth at 7 to 9 days after treatment according to the following scale:
(§6) 2=75% of control regrowth
(§7) 3=50% of control regrowth
(§8) All the data were subject to an analysis of variance, and the mean separations were determined with Duncan's multiple range test at p=0.05.

Pigweed = experiment: Greenhouse spray test, phytotoxicity rating on pigweed; assay type: in vivo, Amaranthus retroflexus (red root pigweed); on 24 hour phytotoxicity Rating (1 = least damage, 5 = most): COC 0.25% (v/v); on 9 day phytotoxicity Rating (1 = least damage, 5 = most): COC 0.25% (v/v)
Experimental: as §1, §2, §3, §4, §8

Lambsquarter = experiment: Greenhouse spray test, phytotoxicity/herbicidal effect and re-growth rating on lambsquarter; assay type: in vivo, Chenopodium album (lambsquarter)
Experimental: as §1, §2, §3, §4, §5, §6, §7, §8

Soybean = experiment: Greenhouse spray test, phytotoxicity/herbicidal effect and re-growth rating on soybean; assay type: in vivo, Glycine max (soybean); on 24 hour phytotoxicity Rating (1 = least damage, 5 = most): COC 0.25% (v/v); on 8 day phytotoxicity Rating (1 = least damage, 5 = most): COC 0.25% (v/v)
Experimental: as §1, §2, §3, §4, §5, §6, §7, §8

Waterhemp = experiment: Greenhouse spray test, phytotoxicity/herbicidal effect and re-growth rating on waterhemp; assay type: in vivo, Amaranthus rudis (water hemp)
Giant Foxtail = experiment: Greenhouse spray test, phytotoxicity/herbicidal effect and re-growth rating on giant foxtail; assay type: in vivo, Setaria faberi (giant foxtail)
Experimental: as §1, §2, §3, §4, §5, §6, §7, §8

Cocklebur = experiment: Greenhouse spray test, phytotoxicity/herbicidal effect and re-growth rating on cocklebur; assay type: in vivo, Xanthrum strumarium (cocklebur)
Experimental: as §1, §2, §3, §4, §5, §6, §7, §8

Morning glory = experiment: Greenhouse spray test, phytotoxicity rating on morning glory; assay type: in vivo; on 24 hour phytotoxicity Rating (1 = least damage, 5 = most): COC 0.25% (v/v)
Experimental: as §1, §2, §3, §4, §8

Burley tobacco = experiment: Field test, phytotoxicity (percent leaf area affected) on Burley tobacco; assay type: in vivo; details: Burley tobacco in the field; apparent 1 day after application, persisted until day 7; summary of Table 6
[1] = Table 4, 24 hour, NaSA 1.6 g/L, Cobra 0.124 mL/L, Flumioxazin […], COC […] (v/v)
[2] = Table 4, 9 day, NaSA 1.6 g/L, Cobra 0.124 mL/L, Flumioxazin […], COC […] (v/v)
[3] = Table 1, 8 day, NaSA 1.6 g/L, Cobra 0.124 mL/L, COC […] (v/v)
[4] = Table 2, 8 day, NaSA 1.6 g/L, Cobra 0.124 mL/L, Lactofen 0.030 g/L, COC […] (v/v)
[5] = Table 2, 8 day, NaSA 8.0 g/L, COC […] (v/v)
[6] = added to Cobra, summary of Table 1
[7] = Table 2, 24 hour, NaSA 1.6 g/L, Cobra 0.124 mL/L, Lactofen 0.030 g/L, COC […] (v/v)

Compound: C#CCN1C(=O)COc2cc(F)c(N3C(=O)C4=C(CCCC4)C3=O)cc21 [Flumioxazin, flumioxazin]
- 24 hour phytotoxicity Rating (1 = least damage, 5 = most) (Tobacco; [1]): 3.7
- 9 day phytotoxicity Rating (1 = least damage, 5 = most) (Tobacco; [2]): 5.0
- 24 hour phytotoxicity Rating (1 = least damage, 5 = most) (Pigweed; [1]): 4.2
- 9 day phytotoxicity Rating (1 = least damage, 5 = most) (Pigweed; [2]): 5.0

Compound: O=C([O-])c1ccccc1O.[Na+] [NaSA, sodium salicylate]
- 8 day new growth rating (1 = healthy new growth, 5 = no new growth) (Tobacco; [3]): 1.0
- 8 day new growth rating (1 = healthy new growth, 5 = no new growth) (Tobacco; [4]): 1.2
- 8 day new growth rating (1 = healthy new growth, 5 = no new growth) (Tobacco; [5]): 4.5
- Synergism of Cobra activity by addition of salicylate (in words) (Tobacco; [6]): synergized
- Effect of salicylate on flumioxazin activity (in words) (Tobacco; added to flumioxazin, summary of Table 4): increase flumioxazin activity
- Effect of salicylate on lactofen activity (in words) (Tobacco; added to lactofen, summary of Table 2): increase lactofen activity
- 8 day new growth rating (1 = healthy new growth, 5 = no new growth) (Lambsquarter; [3]): 1.0
- Synergism of Cobra activity by addition of salicylate (in words) (Lambsquarter; [6]): synergized
- 8 day new growth rating (1 = healthy new growth, 5 = no new growth) (Soybean; [3]): 1.2
- 8 day new growth rating (1 = healthy new growth, 5 = no new growth) (Soybean; [4]): 2.0
- 8 day new growth rating (1 = healthy new growth, 5 = no new growth) (Soybean; [5]): 4.2
- Synergism of Cobra activity by addition of salicylate (in words) (Soybean; [6]): not
- Safening: effect of salicylate on herbicide-induced damage (in words) (Soybean; summary of Table 1): decrease and delay herbicide-induced damage
- 8 day new growth rating (1 = healthy new growth, 5 = no new growth) (Waterhemp; [3]): 1.0
- Synergism of Cobra activity by addition of salicylate (in words) (Waterhemp; [6]): not
- 8 day new growth rating (1 = healthy new growth, 5 = no new growth) (Giant Foxtail; [3]): 1.0
- Synergism of Cobra activity by addition of salicylate (in words) (Giant Foxtail; [6]): not
- 8 day new growth rating (1 = healthy new growth, 5 = no new growth) (Cocklebur; [3]): 1.0
- Synergism of Cobra activity by addition of salicylate (in words) (Cocklebur; [6]): not
- Effect of salicylate on herbicidal activity of Cobra (in words) (Morning glory; added to Cobra, summary of Table 3): increases the herbicidal activity
- Effect of salicylate on herbicidal activity of lactofen (in words) (Morning glory; added to lactofen, summary of Table 3): increases the herbicidal activity
- Effect of salicylate on Cobra herbicidal activity (in words) (Pigweed; added to Cobra, effect not statistically significant, summary of Table 4): increased
- Effect of salicylate on flumioxazin herbicidal activity (in words) (Pigweed; added to flumioxazin, effect not statistically significant, summary of Table 4): increased
- Effect of addition of salicylate on Phoenix (lactofen) herbicidal activity (in words) (Burley tobacco): increased

Compound: CCOC(=O)C(C)OC(=O)c1cc(Oc2ccc(C(F)(F)F)cc2Cl)ccc1[N+](=O)[O-] (centres unmarked) [Lactofen, lactofen]
- 24 hour phytotoxicity Rating (1 = least damage, 5 = most) (Tobacco; [7]): 3.1
- 8 day new growth rating (1 = healthy new growth, 5 = no new growth) (Tobacco; [4]): 5.0
- 8 day phytotoxicity Rating (1 = least damage, 5 = most) (Tobacco; [4]): 4.2
- 24 hour phytotoxicity Rating (1 = least damage, 5 = most) (Soybean; [7]): 2.4
- 8 day new growth rating (1 = healthy new growth, 5 = no new growth) (Soybean; [4]): 2.6
- 8 day phytotoxicity Rating (1 = least damage, 5 = most) (Soybean; [4]): 2.7
- 24 hour phytotoxicity Rating (1 = least damage, 5 = most) (Morning glory; Table 3, 24 hour, NaSA 1.6 g/L, Cobra 0.124 mL/L, Lactofen 0.030 g/L, COC […] (v/v)): 3.3
